Measured values from ChEMBL document CHEMBL1201862, “PubChem BioAssay data set” (2004).
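Grown in 96-well plates, cells were treated for 48 hours with each compound at five concentrations. Insufficient inhibition: endpoint recorded as highest concentration tested. Here, GI50 denotes the concentration required for 50% inhibition of growth.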 Activity calls are given as the source filed them. No stated cut-off is given here; in the data, active = GI50 up to about 1.1 µM and inactive = higher.

Experiments:
Test in all cases: inhibition of tumour cell growth, NCI panel, 48 h
786-0 = system: 786-0
A498 = system: A498
A549 = system: A549
ACHN = system: ACHN
CAKI-1 = system: CAKI-1
COLO 205 = system: COLO 205
DLD-1 = system: DLD-1
DMS-114 = system: DMS-114
DMS-273 = system: DMS-273
EKVX = system: EKVX
HCC 2998 = system: HCC 2998
HCT-116 = system: HCT-116
HCT-15 = system: HCT-15
HOP-18 = system: HOP-18
HOP-62 = system: HOP-62
HOP-92 = system: HOP-92
HT-29 = system: HT-29
IGROV-1 = system: IGROV-1
KM-20L2 = system: KM-20L2
KM12 = system: KM12
LXFL 529 = system: LXFL 529
M14 = system: M14
M19-MEL = system: M19-MEL
Malme-3M = system: Malme-3M
NCI-H226 = system: NCI-H226
NCI-H23 = system: NCI-H23
NCI-H460 = system: NCI-H460
NCI-H522 = system: NCI-H522
OVCAR-3 = system: OVCAR-3
OVCAR-4 = system: OVCAR-4
OVCAR-5 = system: OVCAR-5
RPMI-8226 = system: RPMI-8226
RXF 393 = system: RXF 393
SF-268 = system: SF-268
SF-295 = system: SF-295
SF-539 = system: SF-539
SK-MEL-28 = system: SK-MEL-28
SK-MEL-2 = system: SK-MEL-2
SK-OV-3 = system: SK-OV-3
SN12C = system: SN12C
SNB-19 = system: SNB-19
SNB-75 = system: SNB-75
SNB-78 = system: SNB-78
SR = system: SR
SW-620 = system: SW-620
U-251 = system: U-251
UACC-257 = system: UACC-257
UACC-62 = system: UACC-62
UO-31 = system: UO-31
CCRF-CEM = system: CCRF-CEM
K562 = system: K562
LOX IMVI = system: LOX IMVI
MOLT-4 = system: MOLT-4
OVCAR-8 = system: OVCAR-8
SK-MEL-5 = system: SK-MEL-5
TK-10 = system: TK-10
HL-60 = system: HL-60

For `Cc1ccc(S(=O)(=O)N/N=C(/CC(=O)c2c(C)[n+]([O-])c3ccccc3[n+]2[O-])C(=O)Nc2ccccc2C)cc1`, the GI50 (786-0) was > 100 µM (inactive), the GI50 (A498) was > 100 µM (inactive) and the GI50 (A549) was > 100 µM (inactive). The GI50 (ACHN) was > 100 µM (inactive), the GI50 (CAKI-1) was > 100 µM (inactive) and the GI50 (COLO 205) was > 100 µM (inactive). The GI50 (DLD-1) was > 100 µM (inactive), the GI50 (DMS-114) was > 100 µM (inactive) and the GI50 (DMS-273) was > 100 µM (inactive). For the same molecule, the GI50 (EKVX) was > 100 µM (inactive), the GI50 (HCC 2998) was > 100 µM (inactive) and the GI50 (HCT-116) was > 100 µM (inactive). The GI50 (HCT-15) was > 100 µM, the GI50 (HOP-18) was > 100 µM (inactive) and the GI50 (HOP-62) was > 100 µM (inactive). For the same molecule, the GI50 (HOP-92) was 30.8 µM (inactive), the GI50 (HT-29) was > 100 µM (inactive) and the GI50 (IGROV-1) was > 100 µM (inactive). For the same molecule, the GI50 (KM-20L2) was > 100 µM (inactive), the GI50 (KM12) was > 100 µM (inactive) and the GI50 (LXFL 529) was > 100 µM (inactive). The GI50 (M14) was > 100 µM (inactive), the GI50 (M19-MEL) was > 100 µM (inactive) and the GI50 (Malme-3M) was > 100 µM (inactive). For the same molecule, the GI50 (NCI-H226) was > 100 µM (inactive), the GI50 (NCI-H23) was > 100 µM (inactive) and the GI50 (NCI-H460) was > 100 µM (inactive). For the same molecule, the GI50 (NCI-H522) was > 100 µM (inactive), the GI50 (OVCAR-3) was > 100 µM (inactive) and the GI50 (OVCAR-4) was > 100 µM (inactive). For the same molecule, the GI50 (OVCAR-5) was > 100 µM (inactive), the GI50 (RPMI-8226) was > 100 µM (inactive) and the GI50 (RXF 393) was > 100 µM (inactive). The GI50 (SF-268) was > 100 µM (inactive), the GI50 (SF-295) was > 100 µM (inactive) and the GI50 (SF-539) was > 100 µM (inactive). The GI50 (SK-MEL-28) was > 100 µM (inactive), the GI50 (SK-MEL-2) was > 100 µM (inactive) and the GI50 (SK-OV-3) was > 100 µM (inactive). For the same molecule, the GI50 (SN12C) was > 100 µM (inactive), the GI50 (SNB-19) was > 100 µM (inactive) and the GI50 (SNB-75) was 31.2 µM (inactive). The GI50 (SNB-78) was > 100 µM (inactive), the GI50 (SR) was 35.5 µM (inactive) and the GI50 (SW-620) was > 100 µM (inactive). The GI50 (U-251) was > 100 µM (inactive), the GI50 (UACC-257) was > 100 µM (inactive) and the GI50 (UACC-62) was > 100 µM (inactive). The GI50 (UO-31) was > 100 µM (inactive).

For `COC12OCCN(C)C1=CC(=O)C1(C)N=NCC12` (stereo unspecified), the GI50 (786-0) was > 100 µM (inactive), the GI50 (A498) was > 100 µM (inactive) and the GI50 (A549) was > 100 µM (inactive). The GI50 (ACHN) was > 100 µM (inactive), the GI50 (CAKI-1) was > 100 µM (inactive) and the GI50 (CCRF-CEM) was > 100 µM (inactive). The GI50 (COLO 205) was > 100 µM (inactive), the GI50 (DLD-1) was > 100 µM (inactive) and the GI50 (DMS-114) was > 100 µM (inactive). The GI50 (DMS-273) was > 100 µM (inactive), the GI50 (EKVX) was > 100 µM (inactive) and the GI50 (HCC 2998) was > 100 µM (inactive). The GI50 (HCT-116) was > 100 µM (inactive), the GI50 (HCT-15) was > 100 µM and the GI50 (HOP-18) was > 100 µM (inactive). For the same molecule, the GI50 (HOP-92) was > 100 µM (inactive), the GI50 (HT-29) was > 100 µM (inactive) and the GI50 (IGROV-1) was > 100 µM (inactive). The GI50 (K562) was > 100 µM (inactive), the GI50 (KM12) was > 100 µM (inactive) and the GI50 (LOX IMVI) was > 100 µM (inactive). For the same molecule, the GI50 (LXFL 529) was > 100 µM (inactive), the GI50 (M14) was > 100 µM (inactive) and the GI50 (M19-MEL) was > 100 µM (inactive). For the same molecule, the GI50 (MOLT-4) was > 100 µM (inactive), the GI50 (Malme-3M) was > 100 µM (inactive) and the GI50 (NCI-H226) was > 100 µM (inactive). For the same molecule, the GI50 (NCI-H23) was > 100 µM (inactive), the GI50 (NCI-H460) was > 100 µM (inactive) and the GI50 (NCI-H522) was > 100 µM (inactive). For the same molecule, the GI50 (OVCAR-3) was > 100 µM (inactive), the GI50 (OVCAR-8) was > 100 µM (inactive) and the GI50 (RPMI-8226) was > 100 µM (inactive). The GI50 (RXF 393) was > 100 µM (inactive), the GI50 (SF-295) was > 100 µM (inactive) and the GI50 (SF-539) was > 100 µM (inactive). For the same molecule, the GI50 (SK-MEL-28) was > 100 µM (inactive), the GI50 (SK-MEL-5) was > 100 µM (inactive) and the GI50 (SK-OV-3) was > 100 µM (inactive). For the same molecule, the GI50 (SN12C) was > 100 µM (inactive), the GI50 (SNB-75) was > 100 µM (inactive) and the GI50 (SNB-78) was > 100 µM (inactive). The GI50 (SW-620) was > 100 µM (inactive), the GI50 (TK-10) was > 100 µM (inactive) and the GI50 (U-251) was > 100 µM (inactive). The GI50 (UACC-257) was > 100 µM (inactive), the GI50 (UACC-62) was > 100 µM (inactive) and the GI50 (UO-31) was > 100 µM (inactive).

With `CC1(C)O[C@@H](CCl)C[C@@H](C#N)O1` the GI50 (786-0) was > 100 µM (inactive), the GI50 (A498) was > 100 µM (inactive) and the GI50 (A549) was > 100 µM (inactive). For the same molecule, the GI50 (ACHN) was > 100 µM (inactive), the GI50 (CAKI-1) was > 100 µM (inactive) and the GI50 (CCRF-CEM) was > 100 µM (inactive). The GI50 (COLO 205) was > 100 µM (inactive), the GI50 (DLD-1) was > 100 µM (inactive) and the GI50 (DMS-114) was > 100 µM (inactive). The GI50 (DMS-273) was > 100 µM (inactive), the GI50 (EKVX) was > 100 µM (inactive) and the GI50 (HCC 2998) was > 100 µM (inactive). For the same molecule, the GI50 (HCT-116) was > 100 µM (inactive), the GI50 (HL-60) was > 100 µM (inactive) and the GI50 (HOP-18) was > 100 µM (inactive). For the same molecule, the GI50 (HOP-62) was > 100 µM (inactive), the GI50 (HOP-92) was > 100 µM (inactive) and the GI50 (HT-29) was > 100 µM (inactive). The GI50 (IGROV-1) was > 100 µM (inactive), the GI50 (K562) was > 100 µM (inactive) and the GI50 (KM-20L2) was > 100 µM (inactive). For the same molecule, the GI50 (KM12) was > 100 µM (inactive), the GI50 (LOX IMVI) was > 100 µM (inactive) and the GI50 (M14) was > 100 µM (inactive). The GI50 (M19-MEL) was > 100 µM (inactive), the GI50 (MOLT-4) was > 100 µM (inactive) and the GI50 (Malme-3M) was > 100 µM (inactive). For the same molecule, the GI50 (NCI-H226) was > 100 µM (inactive), the GI50 (NCI-H23) was > 100 µM (inactive) and the GI50 (NCI-H460) was > 100 µM (inactive). The GI50 (NCI-H522) was > 100 µM (inactive), the GI50 (OVCAR-3) was > 100 µM (inactive) and the GI50 (OVCAR-4) was > 100 µM (inactive). For the same molecule, the GI50 (OVCAR-5) was > 100 µM (inactive), the GI50 (OVCAR-8) was > 100 µM (inactive) and the GI50 (RPMI-8226) was > 100 µM (inactive). For the same molecule, the GI50 (RXF 393) was > 100 µM (inactive), the GI50 (SF-268) was > 100 µM (inactive) and the GI50 (SF-295) was > 100 µM (inactive). For the same molecule, the GI50 (SF-539) was > 100 µM (inactive), the GI50 (SK-MEL-28) was > 100 µM (inactive) and the GI50 (SK-MEL-2) was > 100 µM (inactive). For the same molecule, the GI50 (SK-MEL-5) was > 100 µM (inactive), the GI50 (SK-OV-3) was > 100 µM (inactive) and the GI50 (SNB-19) was > 100 µM (inactive). The GI50 (SNB-75) was > 100 µM (inactive), the GI50 (SNB-78) was > 100 µM (inactive) and the GI50 (SR) was > 100 µM (inactive). The GI50 (SW-620) was > 100 µM (inactive), the GI50 (TK-10) was > 100 µM (inactive) and the GI50 (U-251) was > 100 µM (inactive). For the same molecule, the GI50 (UACC-257) was > 100 µM (inactive), the GI50 (UACC-62) was > 100 µM (inactive) and the GI50 (UO-31) was > 100 µM (inactive).
